“Also recorded” adds a separate entry of the source. Where no end group is shown, it is not given here.
Key:
[1] = tested on: insulin treated obese NIDDM patients; experiment: Meal test in insulin treated obese NIDDM patients (Example 1); type: in vivo, human; settings: meal-related, glibenclamide 1 mg i.v., GLP-1(7-36)amide infusion 0.75 pmol/kg/min for 210 min, 6 NIDDM patients
[2] = tested on: patients with NIDDM and secondary failure to sulfonylurea treatment; experiment: Basal state and meal test in NIDDM patients with secondary failure to sulfonylurea treatment (Example 2); type: in vivo, human; settings: for Insulinogenic index: after ingestion of the meal, integrated insulin/integrated glucose response; for Blood glucose: 45 minutes after start of administration, glibenclamide 1 mg i.v., GLP-1(7-36)amide 0.75 pmol/kg/min
[3] = tested on: isolated precultured rat pancreatic islets; settings: in the presence of glucose; cited from earlier work
[4] = tested on: diabetic as well as nondiabetic subjects; settings: diabetic and nondiabetic subjects; cited from earlier work

Molecule	Glucagon response [1]	Glucagon response ([1]; listed as GLP-1(7-36) amide)	Insulinogenic index [2]	Blood glucose ([2]; basal state)	insulin release [3]	effect on blood glucose and C-peptide levels ([2]; basal state, in words)	insulinotropic action [4]
GLP-1(7-36)amide	10451 ± 5126 pg/ml/210 min	suppressed the glucagon response	21.0 ± 7.2	5.1 ± 0.4 mmol/L	–	–	–
GLP-1(1-36)amide (HDEFERHAEGTFTSDVSSYLEGQAAKEFIAWLVKGR-NH2; UniProt P01275 92-127, looked up, fragment) [amide of the GLP-1 fragment comprising amino acid residues 1 to 36]	–	–	–	–	stimulates insulin release	–	–
COc1ccc(Cl)cc1C(=O)NCCc1ccc(S(=O)(=O)NC(=O)NC2CCCCC2)cc1 [glibenclamide]	no significant influence on glucagon release; also recorded: no significant effect	–	10.6 ± 2.8	6.0 ± 0.3 mmol/L	–	no significant effect on its own	–
GLP-1(7-37) (HAEGTFTSDVSSYLEGQAAKEFIAWLVKGRG; Glucagon-like peptide 1(7-37); UniProt P01275 98-128, looked up) [GLP-1 fragment, residues 7 to 37; formula I when X is Gly--OH]	–	–	–	–	–	–	has been demonstrated

Reference: patent USRE37302E, “Peptide” (Novo Nordisk A/S, priority 1992, dated 2001)
